Key:
proMMP-9 = molecular target: T1, proMMP-9 (Homo sapiens, UniProt P14780); test: proMMP-9 tryptophan fluorescence blue shift binding assay; conditions: binding to proMMP-9, tryptophan fluorescence
T1 construct: Purified recombinant MMP-9 (50 nmol/L) or MMP-9/MMP-2PEX (50 nmol/L) was diluted in buffer
Protocol: A blue shift in proMMP-9 tryptophan fluorescence was monitored to determine the binding affinity of all compounds. Binding of a test compound to MMP-9 was assayed by observing the change of tryptophan emission upon binding. Purified recombinant MMP-9 (50 nmol/L) or MMP-9/MMP-2PEX (50 nmol/L) was diluted in buffer (50 mmol/L Tris-HCl, 60 mmol/L KCl, and 0.05% Tween 20, pH 7.4) in the presence or absence of the test compound. As a control for protein stability and loss, an analogous buffer solution was added to the protein. The protein sample was excited at 280 nm and emission scans were collected from 290 to 400 nm, using slit widths of 0.3 nm on a QM 4/200SE spectrofluorimeter with double excitation and emission monochromators. Three emission scans were collected and averaged at each concentration. The Kd was determined using the Prism software package (GraphPad V5) to fit the data to Equation (Δ). λmax=(λmax^∞×[2])/(Kd+[2]) (A) in which λmax is the wavelength at which maximal fluorescence of the protein was observed.

[1] = system: proMMP9-mediated migration of COS-1 cells; test: two-dimensional collagen dot migration assay, COS-1 cells overexpressing proMMP-9; type: cell-based; conditions: for inhibition at 50 µM: Chlorocebus aethiops
Protocol: This assay was initially used to test the efficacy of analogs at a single concentration, 50 μM.
Cells were mixed with type I collagen solution with or without compound, dotted onto a 96-well plate, and allowed to migrate for 18 hours. They were then fixed, stained and scored for extent of migration.

[2] = system: COS-1 cells stably expressing vector control or proMMP-9; test: acute cytotoxicity in COS-1 cells; type: cell-based; conditions: 100 nM staurosporine (positive control), 24 hours
Protocol: Compound 3c was evaluated for acute cytotoxicity. COS-1 cells stably expressing either vector control or proMMP-9 cDNA were treated with 50 μM 3c for 24 hours. As negative and positive controls, cells were treated with DMSO alone or 100 nM staurosporine (STS), an apoptosis inducer, respectively. […] A non-statistically significant 8% decrease in cell growth occurred after treatment with 50 μM of compound 3c. These experiments were repeated in endogenous MMP-9 expressing HT1080 fibrosarcoma cells, which were analyzed for chronic toxicity (cells were re-treated every three days for a total of nine days).

[3] = system: MMP-9 at the cell surface of HT1080 cells; test: MMP-9 cell surface localization, immunofluorescence in HT1080 cells; type: cell-based, Human
Protocol: HT1080 cells were fixed in 4% paraformaldehyde then subsequently incubated with anti-MMP-9 in addition to anti-α4 and/or β1 integrin antibodies to monitor relative levels of localization of these proteins at the cell surface. The cells were counterstained with DAPI nuclear dye.

HT1080 cells [4] = test: cell adhesion to collagen or fibronectin coated plate; type: cell-based, Human; conditions: 37° C. 30 min
Protocol: A 96-well plate was coated with a thin layer of either collagen or fibronectin (5 μg/ml in PBS) substrate before use. HT1080 cells were then seeded onto wells and incubated at 37° C. for 30 min in the presence of various inhibitors. Wells were washed and cells were fixed in 4% paraformaldehyde and stained with DAPI. Images of each 96-well were microscopically captured and counted for the number of cells still adherent to the coated surface using automated computer software.

[5] = molecular target: T2, APMA-activated recombinant proMMP-9 (Homo sapiens, UniProt P14780); test: MMP-9 catalytic activity with fluorogenic peptide; type: biochemical; conditions: 10 μM fluorogenic peptide, monitored over 2 hours
T2 construct: made in house
Protocol: Recombinant proMMP-9 protein was purified and incubated overnight in a 37° C. water bath in TNC buffer+1 mM APMA to artificially activate the protein.

[6] = system: FAK and PAX adhesion junctions in HT1080 cells; test: focal adhesion complexes, immunofluorescence in HT1080 cells; type: cell-based, Human
[7] = molecular target: T3, MMP-9 association with CD44 and EGFR (Homo sapiens, UniProt P14780); test: co-immunoprecipitation of endogenous CD44 and EGFR with MMP-9 in HT1080 cells; type: cell-based; conditions: 50 μM overnight
T3 construct: expressed in transfected cells; host or cells: HT1080 human fibrosarcoma cells (MMP-9 transfected; CD44 and EGFR endogenous)

[8] = system: proMMP-14-mediated migration of COS-1 cells; test: two-dimensional dot migration assay, COS-1 cells stably expressing proMMP-14; type: cell-based
Protocol: (§1) To test whether compound 3c is specific for inhibiting only proMMP9-mediated migration, a two-dimensional dot migration assay was performed using COS-1 cells engineered to stably express vector control pQCXIP, proMMP-2, proMMP-9, or proMMP-14 cDNA vectors. An immunoblot was performed to confirm protein expression and proper localization of each MMP (MMP-2/-9 are secreted while MMP-14 is membrane bound).

[9] = molecular target: T4, MMP-9 interaction with α4/β1 integrin (Homo sapiens, UniProt P14780); test: co-immunoprecipitation of endogenous integrin with MMP-9 in HT1080 cells; type: cell-based; conditions: 50 μM
T4 construct: expressed in transfected cells; host or cells: HT1080 cells (MMP-9 transfected; integrin endogenous)
Protocol: (§2) HT1080 cells transiently co-transfected with tagged MMP-9 cDNAs were prepared as described above.

[10] = system: proMMP-2-mediated migration of COS-1 cells; test: two-dimensional dot migration assay, COS-1 cells stably expressing proMMP-2; type: cell-based
Protocol: as §1

[11] = system: Src^Tyr418, FAK^Tyr576/577, PAX^Tyr118 phosphorylation; test: phosphorylation of Src and downstream targets in HT1080 cells; type: cell-based, Human; conditions: 50 μM
Protocol: as §2

[12] = system: EGFR^Tyr1068, AKT^Ser473, Erk1/2^Thr202/Tyr204 phosphorylation; test: phosphorylation of EGFR and downstream targets in HT1080 cells; type: cell-based, Human; conditions: 50 μM overnight
[13] = system: HT1080 cells stably expressing GFP; test: chorioallantoic membrane (CAM) assay, invasion; type: in vivo, chicken embryo; conditions: 100 μM stock solution (final estimated 0.5 μM), vs DMSO or 1f
Protocol: HT1080 cells stably expressing GFP were mixed with a type I collagen solution (3 mg/mL) and seeded atop the CAM to ensure the cells localized to a specific area. […] The invasion of cancer cells through the epithelium and basement membrane of the upper CAM into connecting tissue was examined by hematoxylin and eosin staining in addition to fluorescence microscopy for GFP^+ cells.

[14] = system: proMMP9-mediated migration of COS-1 cells; test: two-dimensional dot migration assay, COS-1 cells stably expressing proMMP-9; type: cell-based
Protocol: as §1

HT1080 cells [15] = test: chorioallantoic membrane (CAM) assay, angiogenesis; type: in vivo, chicken embryo; conditions: 100 μM stock solution (final estimated 0.5 μM), 4-day incubation, vs DMSO and 1f
Protocol: A CAM assay was carried out to evaluate angiogenic and invasive potential of HT1080 cells after treatment with 3c. […] After a 4-day incubation, neovascularization was imaged and quantified.

T1 sequence (P14780 20-707 limits assumed): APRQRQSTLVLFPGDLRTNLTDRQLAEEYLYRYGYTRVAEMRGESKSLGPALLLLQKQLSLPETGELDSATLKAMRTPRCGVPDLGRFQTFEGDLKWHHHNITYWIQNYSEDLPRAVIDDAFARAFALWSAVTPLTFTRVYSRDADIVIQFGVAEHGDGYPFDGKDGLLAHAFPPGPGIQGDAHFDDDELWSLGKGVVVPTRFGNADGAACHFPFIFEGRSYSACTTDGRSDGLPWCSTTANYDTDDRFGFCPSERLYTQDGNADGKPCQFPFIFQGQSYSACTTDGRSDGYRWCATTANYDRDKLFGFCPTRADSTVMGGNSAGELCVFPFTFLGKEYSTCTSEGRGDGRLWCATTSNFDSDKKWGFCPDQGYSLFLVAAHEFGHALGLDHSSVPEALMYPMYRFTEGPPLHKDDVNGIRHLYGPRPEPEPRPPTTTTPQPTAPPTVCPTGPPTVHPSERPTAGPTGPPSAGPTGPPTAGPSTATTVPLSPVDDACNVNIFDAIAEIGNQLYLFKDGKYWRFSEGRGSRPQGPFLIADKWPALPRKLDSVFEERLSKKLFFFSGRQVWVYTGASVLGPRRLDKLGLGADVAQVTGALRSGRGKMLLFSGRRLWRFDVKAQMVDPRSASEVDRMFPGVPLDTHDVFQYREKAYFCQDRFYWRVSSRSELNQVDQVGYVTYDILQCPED
T2 sequence (P14780 107-707 limits assumed): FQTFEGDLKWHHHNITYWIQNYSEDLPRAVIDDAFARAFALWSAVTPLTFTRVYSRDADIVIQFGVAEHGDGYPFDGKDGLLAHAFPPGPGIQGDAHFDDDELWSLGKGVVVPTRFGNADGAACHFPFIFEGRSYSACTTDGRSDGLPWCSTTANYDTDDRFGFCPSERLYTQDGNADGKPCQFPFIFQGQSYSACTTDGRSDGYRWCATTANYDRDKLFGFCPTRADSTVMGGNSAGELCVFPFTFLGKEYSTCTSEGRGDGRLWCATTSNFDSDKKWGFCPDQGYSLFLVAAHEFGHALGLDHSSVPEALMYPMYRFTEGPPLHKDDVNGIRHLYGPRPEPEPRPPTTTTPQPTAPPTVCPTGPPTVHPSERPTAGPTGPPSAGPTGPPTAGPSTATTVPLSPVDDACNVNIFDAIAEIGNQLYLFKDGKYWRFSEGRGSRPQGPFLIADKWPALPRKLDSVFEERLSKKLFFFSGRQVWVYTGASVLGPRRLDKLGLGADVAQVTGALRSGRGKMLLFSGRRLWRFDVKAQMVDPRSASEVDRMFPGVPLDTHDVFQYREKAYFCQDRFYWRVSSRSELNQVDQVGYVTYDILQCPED
T4 sequence (P14780 94-707): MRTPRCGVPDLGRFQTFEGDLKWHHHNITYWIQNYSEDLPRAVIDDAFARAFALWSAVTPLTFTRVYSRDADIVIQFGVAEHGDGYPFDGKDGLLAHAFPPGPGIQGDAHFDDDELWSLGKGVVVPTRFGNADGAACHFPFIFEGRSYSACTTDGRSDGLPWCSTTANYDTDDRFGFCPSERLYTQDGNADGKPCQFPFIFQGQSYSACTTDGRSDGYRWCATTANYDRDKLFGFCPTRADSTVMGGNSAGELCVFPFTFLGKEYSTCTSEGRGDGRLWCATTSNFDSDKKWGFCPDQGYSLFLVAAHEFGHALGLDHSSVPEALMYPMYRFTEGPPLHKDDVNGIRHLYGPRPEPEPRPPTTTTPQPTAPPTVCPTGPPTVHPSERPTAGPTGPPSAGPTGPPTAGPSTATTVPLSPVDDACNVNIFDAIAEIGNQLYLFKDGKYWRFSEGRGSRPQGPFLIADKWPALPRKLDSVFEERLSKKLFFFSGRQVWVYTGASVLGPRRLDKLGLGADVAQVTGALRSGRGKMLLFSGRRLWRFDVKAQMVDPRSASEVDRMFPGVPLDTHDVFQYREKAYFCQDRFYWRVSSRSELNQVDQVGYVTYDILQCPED
T3 sequence (P14780 94-707): as above

| SMILES | Kd (proMMP-9) | inhibition at 50 µM ([1]; 50 μM, 18 hours) | melting point | further results |
| --- | --- | --- | --- | --- |
| CCCCCCNC(=O)CCCSc1nc2ccccc2c(=O)[nH]1 [Compound 4e, N-Hexyl-4-(4-oxo-3,4-dihydroquinazolin-2-ylthio)butanamide] | 900 ± 300 nM | 56 ± 1% | – | – |
| CN[C@@H]1C[C@H]2O[C@@](C)([C@@H]1OC)n1c3ccccc3c3c4c(c5c6ccccc6n2c5c31)C(=O)NC4 [STS, staurosporine, reference compound] | – | – | – | cell death [2]: Significant cell death |
| CCCc1cc(=O)nc(SCC(=O)N(C)c2ccccc2)[nH]1 [Compound 1f, 2-(4-Oxo-6-propyl-1,4-dihydropyrimidin-2-ylthio)-N(methyl)-phenylacetamide, reference compound] | – | – | – | localization of MMP-9 on the cell surface [3]: did not disrupt the localization of MMP-9 on the cell surface; % Inhibition of proMMP9-Mediated Migration at 50 μM ([1]; 50 μM, 18 hours): 2 ± 6%; cellular adhesion (HT1080 cells [4]): no affect on cell adhesion |
| CCCc1cc(=O)nc(SCCCC(=O)Nc2ccc(F)cc2)[nH]1 [Compound 2c, N-(4-Fluorophenyl)-4-(4-oxo-6-propyl-1,4-dihydropyrimidin-2-ylthio)butanamide] | 910 ± 100 nM | 68 ± 3% | 180 to 182 °C | – |
| O=C(CCCSc1nc2c(c(=O)[nH]1)CCCC2)Nc1nc2ccccc2[nH]1 [Compound 3d, N-(1H-Benzo[d]imidazol-2-yl)-4-(4-oxo-3,4,5,6,7,8-hexahydroquinazolin-2-ylthio)butanamide] | 500 ± 200 nM | 77 ± 2% | > 230 °C | – |
| CCCc1cc(=O)nc(SCC(=O)Nc2ccccc2)[nH]1 [Compound 1b, 2-(4-Oxo-6-propyl-1,4-dihydropyrimidin-2-ylthio)-N-phenylacetamide] | 4500 ± 600 nM | 12 ± 3% | 170 °C (dec.) | – |
| CCCc1cc(=O)nc(SCCCC(=O)Nc2ccc(OC(F)F)cc2)[nH]1 [Compound 2a, N-(4-Difluoromethoxyphenyl)-4-(4-oxo-6-propyl-1,4-dihydropyrimidin-2-ylthio)butanamide] | 1000 ± 200 nM | 63 ± 4% | – | – |
| CNC(=O)[C@@H](NC(=O)[C@H](CC(C)C)[C@H](O)C(=O)NO)C(C)(C)C [marimastat, reference compound] | – | – | – | inhibition of MMP-9 catalytic activity [5]: no substrate cleavage was observed; cellular adhesion (HT1080 cells [4]): no observable effect on cell attachment; formation of focal adhesion contact sites ([6]; 80 nM, p-FAK and p-PAX): did not prevent the formation of focal adhesion contact sites |
| O=C(CCCSc1nc2ccccc2c(=O)[nH]1)Nc1ccc(OC(F)F)cc1 [Compound 4a, N-(4-(Difluoromethoxy)phenyl)-4-(4-oxo-3,4-dihydroquinazolin-2-ylthio)butanamide] | 500 ± 100 nM | 78 ± 3% | 210 to 211 °C | – |
| O=C(CCCSc1nc2ccccc2c(=O)[nH]1)Nc1ccccc1 [Compound 4b, 4-(4-Oxo-3,4-dihydroquinazolin-2-ylthio)-N-phenylbutanamide] | 800 ± 100 nM | 64 ± 4% | – | – |
| O=C(CCCSc1nc2ccccc2c(=O)[nH]1)Nc1nc2ccccc2[nH]1 [Compound 4d, N-(1H-Benzo[d]imidazol-2-yl)-4-(4-oxo-3,4-dihydroquinazolin-2-ylthio)butanamide] | 300 ± 100 nM | 81 ± 3% | > 230 °C | – |
| CCCc1cc(=O)nc(SCC(=O)Nc2nc3ccccc3[nH]2)[nH]1 [Compound 1d, N-(1H-benzo[d]imidazol-2-yl)-2-(4-oxo-6-propyl-1,4-dihydropyrimidin-2-ylthio)acetamide] | 1200 ± 200 nM | 61 ± 2% | 217 °C (dec.) | – |
| CCCc1cc(=O)nc(SCC(=O)Nc2ccc(OC(F)F)cc2)[nH]1 [Compound 1a, N-(4-Difluoromethoxyphenyl)-2-(4-oxo-6-propyl-1,4-dihydropyrimidin-2-ylthio)acetamide] | – | – | – | inhibition of MMP-9 catalytic activity [5]: No inhibition of the catalytic activity was observed; endogenous CD44 and EGFR co-immunoprecipitation [7]: reduced endogenous CD44 and EGFR co-immunoprecipitation; inhibition of proMMP-14-mediated migration [8]: only inhibited proMMP9-mediated migration; endogenous α4β1 integrin co-immunoprecipitation [9]: reduced endogenous α4β3 integrin co-immunoprecipitation; localization of MMP-9 on the cell surface [3]: loss of MMP-9 from the cell surface; inhibitor effectiveness at concentrations above 50 μM ([1]; above 50 μM): did not increase inhibitor effectiveness; inhibition of proMMP-2-mediated migration [10]: only inhibited proMMP9-mediated migration; Src^Tyr418 phosphorylation and phosphorylation of FAK^Tyr576/577 and PAX^Tyr118 [11]: reduced Src^Tyr418 phosphorylation; phosphorylation of EGFR^Tyr1068 and downstream targets AKT^Ser473 and Erk1/2^Thr202/Tyr204 [12]: reduced phosphorylation; cellular adhesion (HT1080 cells [4]): inhibited cellular adhesion; invasion of CAM tissue [13]: reduced invasion of CAM tissue; inhibition of proMMP-9-mediated migration [14]: only inhibited proMMP9-mediated migration; formation of FAK and PAX adhesion junctions ([6]; 50 μM overnight): A decrease in the formation of FAK and PAX adhesion junctions; angiogenic potential of HT1080 cells (neovascularization) (HT1080 cells [15]): significantly reduced the angiogenic potential of HT1080 cells |
| O=C(CCCSc1nc2c(c(=O)[nH]1)CCCC2)Nc1ccc(OC(F)F)cc1 [Compound 3a, N-(4-Difluoromethoxyphenyl)-4-(4-oxo-3,4,5,6,7,8-hexahydroquinazolin-2-ylthio)butanamide] | 600 ± 100 nM | 74 ± 2% | 197 to 198 °C | – |
| O=C(CCCSc1nc2c(c(=O)[nH]1)CCCC2)Nc1ccccc1 [Compound 3b, 4-(4-Oxo-3,4,5,6,7,8-hexahydroquinazolin-2-ylthio)-N-phenylbutanamide] | 500 ± 100 nM | 76 ± 1% | – | – |
| CCCc1cc(=O)nc(SCC(=O)Nc2ccc(F)cc2)[nH]1 [Compound 1c, N-(4-Fluorophenyl)-2-(4-oxo-6-propyl-1,4-dihydropyrimidin-2-ylthio)acetamide] | 3800 ± 600 nM | 29 ± 4% | 191 to 194 °C | – |
| O=C(CCCSc1nc2ccccc2c(=O)[nH]1)Nc1ccc(F)cc1 [Compound 4c, N-(4-Fluorophenyl)-4-((4-oxo-3,4-dihydroquinazolin-2-yl)thio)butanamide] | 640 ± 60 nM | 73 ± 2% | 216 to 217 °C | – |

From patent publication US11040947B2, “Substituted quinazolines as matrix metalloproteinase-9 hemopexin domain inhibitors” (The Research Foundation for The State University of New York, priority 2017, dated 2021)
